Results taken from ChEMBL document CHEMBL3045450, “Studies on characteristics of ATPase activity of cardiac myosin in the presence of daunorubicin” (Med Chem Res, 2009).

Assays:
Type in all cases: tissue-based, Heart left ventricle
[1] = Inhibition of Sus scrofa (pig) left ventricle Ca2+-ATPase activity of cardiac myosin assessed as inorganic phosphorus released from protein at 0.05 uM after 30 min; details: 0.5 h
[2] = Inhibition of Sus scrofa (pig) left ventricle Ca2+-ATPase activity of cardiac myosin assessed as inorganic phosphorus released from protein at 0.2 uM after 1 hr
[3] = Inhibition of Sus scrofa (pig) left ventricle Ca2+-ATPase activity of cardiac myosin assessed as inorganic phosphorus released from protein at 0.2 to 1 uM; details: TDE = time-dependent effect
[4] = Inhibition of Sus scrofa (pig) left ventricle Ca2+-ATPase activity of cardiac myosin assessed as inorganic phosphorus released from protein at 0.05 to 0.4 uM
[5] = Inhibition of Sus scrofa (pig) left ventricle Ca2+-ATPase activity of cardiac myosin assessed as inorganic phosphorus released from protein at > 0.1 uM after 10 min
[6] = Inhibition of Sus scrofa (pig) left ventricle Ca2+-ATPase activity of cardiac myosin assessed as inorganic phosphorus released from protein at 0.4 uM in presence of Mg2+
[7] = Inhibition of Sus scrofa (pig) left ventricle Ca2+-ATPase activity of cardiac myosin assessed as inorganic phosphorus released from protein at 0.2 uM after 10 min
[8] = Inhibition of Sus scrofa (pig) left ventricle Ca2+-ATPase activity of cardiac myosin assessed as residual activity at 0.8 uM

**Q.** For `COc1cccc2c1C(=O)c1c(O)c3c(c(O)c1C2=O)C[C@@](O)(C(C)=O)C[C@@H]3O[C@H]1C[C@H](N)[C@H](O)[C@H](C)O1` [DAUNORUBICIN], which “inhibition (INH)” value [1] is on record?
**A.** Its value is “Active”.

**Q.** And the “inhibition (INH)” value [2]?
**A.** The value was “Active”.

**Q.** What about the “inhibition (INH)” value [3] of the same compound?
**A.** The value was “tde”.

**Q.** What about the “inhibition (INH)” value [4] of the same compound?
**A.** Its value is “Active”.

**Q.** What about the “inhibition (INH)” value [5] of the same compound?
**A.** Its value is “Active”.

**Q.** What about the “inhibition (INH)” value [6] of the same compound?
**A.** The value was “Not Active”.

**Q.** What about the “inhibition (INH)” value [7] of the same compound?
**A.** The value was “Active”.

**Q.** And the Activity [8]?
**A.** Its Activity is 0.12 U.
